Patent publication US20130316389A1, “Method and System for Determining Characteristics of an Embryo and Uses Thereof” (University of Plymouth, priority 2010, published 2013)

Test system: zebra fish (Danio rerio) embryos
Assay: Movement pattern analysis of zebra fish embryos subjected to challenge (Example 5)
Format: in vivo
Conditions: 30 minutes exposure
Description: Images of the movement of each subject embryo were recorded for a period of ten minutes. The imaging apparatus comprised a 4 megapixel monochrome camera (AVT Pike 421) operating at 15 Hz with a 1600×1200 pixel region of interest, connected to a zooming optic lens system (Keyence VHZ100R).
This temporal tracking technique first extracts corner features from each image. Thereafter, image features are registered from frame to frame and assigned a velocity variance to each, A feature with a high velocity variance was rejected, as indicating inaccurate tracking. The remaining features were used in subsequent analysis of the movement pattern of the embryo.
Four parameters of motion of the subject embryo were extracted from each frame of the image data and compared with the corresponding parameters in the preceding frames. The four parameters of motion were positive and negative angles of rotation, and Rho-theta angular changes to the centre of mass for the embryo. The centre of mass of the embryo was determined by determining the X and Y coordinates of every point of motion detected. The X and Y coordinates were summed to provide mean values for X and Y.
The resulting data were analysed for spectral content using the Fast Discrete Fourier Transform (FDFT), to generate data relating to the frequency of motion of the subject embryo. […] 18 frequency bins were analysed from the FDFT analysis. […]

## CCO [ethanol]
1.5% ethanol in deionised water, stage 19 and 21.5 hpf embryos, 27° C
  movement pattern (optic flow) compared with the control embryos: more peaks in positive and negative rotational movement and X and Y displacement of the centre of mass
1.5% ethanol, stage 33 embryos
  distinction from control embryos by ANOSIM analysis of movement patterns: readily distinguished from the stage 33 control embryos
